Results taken from ChEMBL document CHEMBL5537115, “New broad-spectrum and potent antibacterial agents with dual-targeting mechanism: Promoting FtsZ polymerization and disrupting bacterial membranes” (Eur J Med Chem, 2024).
Values after ≈ are worked out from the molar mass of the structure shown.

Experiments:
Format in all cases: functional
Acinetobacter baumannii [1] = assay: Antibacterial activity against Acinetobacter baumannii ATCC19606 assessed as bacterial growth inhibition incubated for 20 hrs by CLSI based broth microdilution method
Staphylococcus aureus [2] = assay: Antibacterial activity against methicillin-resistant Staphylococcus aureus ATCC43300 assessed as bacterial growth inhibition incubated for 20 hrs by CLSI based broth microdilution method
Enterococcus faecium [3] = assay: Antibacterial activity against vancomycin-resistant Enterococcus faecium ATCC51559 assessed as bacterial growth inhibition incubated for 20 hrs by CLSI based broth microdilution method
Enterococcus faecalis [4] = assay: Antibacterial activity against vancomycin-susceptible Enterococcus faecalis ATCC29212 assessed as bacterial growth inhibition incubated for 20 hrs by CLSI based broth microdilution method
Streptococcus pyogenes [5] = assay: Antibacterial activity against erythromycin-susceptible Streptococcus pyogenes 1 assessed as bacterial growth inhibition incubated for 20 hrs by CLSI based broth microdilution method
Streptococcus pyogenes [6] = assay: Antibacterial activity against erythromycin-resistant Streptococcus pyogenes 2 clinical isolate assessed as bacterial growth inhibition incubated for 20 hrs by CLSI based broth microdilution method
Bacillus pumilus = assay: Antibacterial activity against penicillin-susceptible Bacillus pumilus CMCC63202 assessed as bacterial growth inhibition incubated for 20 hrs by CLSI based broth microdilution method
Staphylococcus aureus [7] = assay: Antibacterial activity against erythromycin-susceptible Staphylococcus aureus ATCC25923 assessed as bacterial growth inhibition incubated for 20 hrs by CLSI based broth microdilution method
Staphylococcus aureus [8] = assay: Antibacterial activity against Staphylococcus aureus clinical isolate assessed as bacterial growth inhibition incubated for 20 hrs by CLSI based broth microdilution method
Klebsiella pneumoniae = assay: Antibacterial activity against Klebsiella pneumoniae ATCC BAA-1902 assessed as bacterial growth inhibition incubated for 20 hrs by CLSI based broth microdilution method
Escherichia coli [9] = assay: Antibacterial activity against wild-type Escherichia coli BW25113 assessed as bacterial growth inhibition incubated for 20 hrs by CLSI based broth microdilution method
Escherichia coli [10] = assay: Antibacterial activity against penicillin-susceptible Escherichia coli ATCC25922 assessed as bacterial growth inhibition incubated for 20 hrs by CLSI based broth microdilution method
Enterococcus faecalis [11] = assay: Antibacterial activity against vancomycin-resistant Enterococcus faecalis ATCC51299 assessed as bacterial growth inhibition incubated for 20 hrs by CLSI based broth microdilution method
[12] = system: Staphylococcus epidermidis; assay: Antibacterial activity against penicillin-resistant Staphylococcus epidermidis clinical isolate assessed as bacterial growth inhibition incubated for 20 hrs by CLSI based broth microdilution method
Staphylococcus aureus [13] = assay: Antibacterial activity against penicillin-resistant Staphylococcus aureus ATCC31007 assessed as bacterial growth inhibition incubated for 20 hrs by CLSI based broth microdilution method
Bacillus subtilis [14] = assay: Antibacterial activity against penicillin-susceptible Bacillus subtilis ATCC9372 assessed as bacterial growth inhibition incubated for 20 hrs by CLSI based broth microdilution method
Enterococcus faecium [15] = assay: Antibacterial activity against vancomycin-susceptible Enterococcus faecium ATCC19434 assessed as bacterial growth inhibition incubated for 20 hrs by CLSI based broth microdilution method
Staphylococcus aureus [16] = assay: Antibacterial activity against methicillin-resistant Staphylococcus aureus ATCC43300 incubated for 18 to 20 hrs; conditions: time 18-20 hrs
Acinetobacter baumannii [17] = assay: Antibacterial activity against Acinetobacter baumannii ATCC19606 incubated for 18 to 24 hrs; conditions: time 18-24 hrs
Bacillus subtilis [18] = assay: Antibacterial activity against penicillin-susceptible Bacillus subtilis ATCC9372 incubated for 18 to 24 hrs; conditions: time 18-24 hrs
Staphylococcus aureus [19] = assay: Antibacterial activity against erythromycin-susceptible Staphylococcus aureus ATCC25923 incubated for 18 to 24 hrs; conditions: time 18-24 hrs
Staphylococcus aureus [20] = assay: Antibacterial activity against Staphylococcus aureus clinical isolate incubated for 18 to 24 hrs; conditions: time 18-24 hrs

Row | SMILES | MIC (Acinetobacter baumannii [1]) | MIC (Staphylococcus aureus [2]) | MIC (Enterococcus faecium [3]) | MIC (Enterococcus faecalis [4]) | MIC (Streptococcus pyogenes [5]) | MIC (Streptococcus pyogenes [6]) | MIC (Bacillus pumilus) | MIC (Staphylococcus aureus [7]) | MIC (Staphylococcus aureus [8]) | MIC (Klebsiella pneumoniae) | MIC (Escherichia coli [9]) | MIC (Escherichia coli [10]) | MIC (Enterococcus faecalis [11]) | MIC [12] | MIC (Staphylococcus aureus [13]) | MIC (Bacillus subtilis [14]) | MIC (Enterococcus faecium [15]) | other results
1 | CC[C@H]1OC(=O)[C@H](C)[C@@H](O[C@H]2C[C@@](C)(OC)[C@@H](O)[C@H](C)O2)[C@H](C)[C@@H](O[C@@H]2O[C@H](C)C[C@H](N(C)C)[C@H]2O)[C@](C)(O)C[C@@H](C)CN(C)[C@H](C)[C@@H](O)[C@]1(C)O [AZITHROMYCIN] | 2 µg/mL (≈ 2.67 µM) | > 64 µg/mL | > 64 µg/mL | 1 µg/mL (≈ 1.34 µM) | 0.03 µg/mL (≈ 0.0401 µM) | > 64 µg/mL | 0.5 µg/mL (≈ 0.668 µM) | 0.25 µg/mL (≈ 0.334 µM) | > 64 µg/mL | 64 µg/mL (≈ 85.4 µM) | > 64 µg/mL | 64 µg/mL (≈ 85.4 µM) | > 64 µg/mL | > 64 µg/mL | > 64 µg/mL | 0.25 µg/mL (≈ 0.334 µM) | 8 µg/mL (≈ 10.7 µM) | 
2 | C[n+]1cc(-c2ccccc2)cc(/C=C/c2ccc(Br)cc2)c1-c1ccccc1.[I-] | 8 µg/mL | 4 µg/mL | 16 µg/mL | 16 µg/mL | 4 µg/mL | 4 µg/mL | 8 µg/mL | 1 µg/mL | 2 µg/mL | 64 µg/mL | > 64 µg/mL | 64 µg/mL | 16 µg/mL | 8 µg/mL | 16 µg/mL | 2 µg/mL | 16 µg/mL | 
3 | COc1ccc2cc3[n+](cc2c1OC)CCc1cc2c(cc1-3)OCO2 [BERBERINE] | > 64 µg/mL | > 64 µg/mL | > 64 µg/mL | > 64 µg/mL | > 64 µg/mL | > 64 µg/mL | > 64 µg/mL | 64 µg/mL | 64 µg/mL | > 64 µg/mL | > 64 µg/mL | > 64 µg/mL | > 64 µg/mL | > 64 µg/mL | > 64 µg/mL | > 64 µg/mL | > 64 µg/mL | 
4 | C[n+]1cc(-c2ccccc2)c(/C=C/c2ccc(O)cc2)cc1-c1ccc(C(C)(C)C)cc1.[I-] | 8 µg/mL | 1 µg/mL | 4 µg/mL | 4 µg/mL | 2 µg/mL | 2 µg/mL | 4 µg/mL | 0.125 µg/mL | 0.5 µg/mL | > 64 µg/mL | 64 µg/mL | 64 µg/mL | 4 µg/mL | 4 µg/mL | 4 µg/mL | 1 µg/mL | 4 µg/mL | 
5 | Cc1ccccc1-c1c[n+](C)c(-c2ccc(C(C)(C)C)cc2)cc1/C=C/c1ccc(F)cc1.[I-] | 2 µg/mL | 0.5 µg/mL | 1 µg/mL | 0.5 µg/mL | 2 µg/mL | 2 µg/mL | 0.5 µg/mL | 1 µg/mL | 0.25 µg/mL | 8 µg/mL | 4 µg/mL | 8 µg/mL | 2 µg/mL | 1 µg/mL | 1 µg/mL | 0.5 µg/mL | 1 µg/mL | 
6 | CC1(C)S[C@@H]2[C@H](NC(=O)[C@H](NC(=O)N3CCN(S(C)(=O)=O)C3=O)c3ccccc3)C(=O)N2[C@H]1C(=O)O [MEZLOCILLIN] | 64 µg/mL (≈ 119 µM) | 16 µg/mL (≈ 29.7 µM) | > 64 µg/mL | 2 µg/mL (≈ 3.71 µM) | < 0.062 µg/mL | < 0.062 µg/mL | 2 µg/mL (≈ 3.71 µM) | 1 µg/mL (≈ 1.85 µM) | 32 µg/mL (≈ 59.3 µM) | > 64 µg/mL | 1 µg/mL (≈ 1.85 µM) | 1 µg/mL (≈ 1.85 µM) | > 64 µg/mL | > 64 µg/mL | > 64 µg/mL | 4 µg/mL (≈ 7.41 µM) | 16 µg/mL (≈ 29.7 µM) | 
7 | CN(C)[C@@H]1C(O)=C(C(N)=O)C(=O)[C@@]2(O)C(O)=C3C(=O)c4c(O)cccc4[C@@](C)(O)[C@H]3C[C@@H]12 [TETRACYCLINE] | 8 µg/mL (≈ 18 µM) | 0.5 µg/mL (≈ 1.13 µM) | 2 µg/mL (≈ 4.5 µM) | 64 µg/mL (≈ 144 µM) | 1 µg/mL (≈ 2.25 µM) | 64 µg/mL (≈ 144 µM) | 64 µg/mL (≈ 144 µM) | 0.5 µg/mL (≈ 1.13 µM) | 1 µg/mL (≈ 2.25 µM) | 32 µg/mL (≈ 72 µM) | 2 µg/mL (≈ 4.5 µM) | 0.5 µg/mL (≈ 1.13 µM) | 2 µg/mL (≈ 4.5 µM) | 32 µg/mL (≈ 72 µM) | 64 µg/mL (≈ 144 µM) | 0.5 µg/mL (≈ 1.13 µM) | 2 µg/mL (≈ 4.5 µM) | 
8 | C[n+]1cc(-c2ccccc2)c(/C=C/c2ccc(N)cc2)cc1-c1ccc(C(C)(C)C)cc1.[I-] | 4 µg/mL | 0.5 µg/mL | 4 µg/mL | 4 µg/mL | 4 µg/mL | 2 µg/mL | 2 µg/mL | 0.125 µg/mL | 0.25 µg/mL | 16 µg/mL | 32 µg/mL | 16 µg/mL | 4 µg/mL | 4 µg/mL | 2 µg/mL | 0.5 µg/mL | 4 µg/mL | 
9 | Cc1ccc(/C=C/c2cc(-c3ccc(C(C)(C)C)cc3)[n+](C)cc2-c2ccccc2C)cc1.[I-] | 4 µg/mL | 0.5 µg/mL | 2 µg/mL | 4 µg/mL | 2 µg/mL | 4 µg/mL | 1 µg/mL | 1 µg/mL | 0.5 µg/mL | 8 µg/mL | 8 µg/mL | 8 µg/mL | 2 µg/mL | 2 µg/mL | 2 µg/mL | 0.5 µg/mL | 2 µg/mL | 
10 | CCOc1ccc(/C=C/c2cc(-c3ccccc3)c[n+](C)c2-c2ccccc2)cc1.[I-] | 16 µg/mL | 8 µg/mL | 16 µg/mL | 16 µg/mL | 4 µg/mL | 8 µg/mL | 16 µg/mL | 2 µg/mL | 2 µg/mL | > 64 µg/mL | > 64 µg/mL | > 64 µg/mL | 32 µg/mL | 16 µg/mL | 16 µg/mL | 4 µg/mL | 32 µg/mL | 
11 | C[n+]1cc(-c2ccccc2)cc(/C=C/c2ccc(C#N)cc2)c1-c1ccccc1.[I-] | 64 µg/mL | 64 µg/mL | > 64 µg/mL | > 64 µg/mL | 32 µg/mL | 32 µg/mL | > 64 µg/mL | 8 µg/mL | 32 µg/mL | > 64 µg/mL | > 64 µg/mL | > 64 µg/mL | > 64 µg/mL | > 64 µg/mL | > 64 µg/mL | 32 µg/mL | > 64 µg/mL | 
12 | C[n+]1cc(-c2ccccc2)c(/C=C/c2ccc(N3CCCCC3)cc2)cc1-c1ccc(C(C)(C)C)cc1.[I-] | 1 µg/mL | 1 µg/mL | 1 µg/mL | 1 µg/mL | 0.5 µg/mL | 2 µg/mL | 0.125 µg/mL | 0.25 µg/mL | 0.5 µg/mL | 8 µg/mL | 4 µg/mL | 64 µg/mL | 2 µg/mL | 1 µg/mL | 0.25 µg/mL | 0.5 µg/mL | 1 µg/mL | 
13 | CC(=O)NC[C@H]1CN(c2ccc(N3CCOCC3)c(F)c2)C(=O)O1 [LINEZOLID] | > 64 µg/mL |  | 4 µg/mL (≈ 11.9 µM) |  | 1 µg/mL (≈ 2.96 µM) | 1 µg/mL (≈ 2.96 µM) | 2 µg/mL (≈ 5.93 µM) |  |  | > 64 µg/mL | > 64 µg/mL | > 64 µg/mL |  | 4 µg/mL (≈ 11.9 µM) |  | 0.5 µg/mL (≈ 1.48 µM) | 8 µg/mL (≈ 23.7 µM) | MBC (Staphylococcus aureus [16]): 8 µg/mL (≈ 23.7 µM); MBC (Acinetobacter baumannii [17]): > 64 µg/mL; MBC (Bacillus subtilis [18]): 64 µg/mL (≈ 190 µM); MBC (Staphylococcus aureus [19]): > 64 µg/mL; MBC (Staphylococcus aureus [20]): > 64 µg/mL
14 | C=CC1=C(C(=O)O)N2C(=O)[C@@H](NC(=O)/C(=N\OCC(=O)O)c3csc(N)n3)[C@H]2SC1 [CEFIXIME] | 32 µg/mL (≈ 70.6 µM) | 4 µg/mL (≈ 8.82 µM) | > 64 µg/mL | > 64 µg/mL | < 0.062 µg/mL | < 0.062 µg/mL | > 64 µg/mL | 1 µg/mL (≈ 2.21 µM) | 8 µg/mL (≈ 17.6 µM) | > 64 µg/mL | < 0.062 µg/mL | < 0.062 µg/mL | > 64 µg/mL | > 64 µg/mL | > 64 µg/mL | 2 µg/mL (≈ 4.41 µM) | > 64 µg/mL | 
15 | Cc1ccc(/C=C/c2cc(-c3ccccc3)c[n+](C)c2-c2ccccc2)cc1.[I-] | 32 µg/mL | 4 µg/mL | 16 µg/mL | 16 µg/mL | 4 µg/mL | 4 µg/mL | 16 µg/mL | 1 µg/mL | 2 µg/mL | > 64 µg/mL | > 64 µg/mL | > 64 µg/mL | 32 µg/mL | 32 µg/mL | 32 µg/mL | 2 µg/mL | 32 µg/mL | 
